The values that follow come from patent US20240228467A1, “INDIRUBIN COMPOUNDS AND METHODS THEREOF” (JAWAHARLAL NEHRU CENTRE FOR ADVANCED SCIENTIFIC RESEARCH, priority 2021, published 2024).

For this test, the system named is HeLa and/or SH-SY5Y cells. In words: Autophagic flux, RFP-EGFP-LC3 assay (fluorescent analysis, FIG. 1). Type of test: cell-based. Conditions: compared to the growth media control. The source says: Autophagic flux refers to a measure of autophagic degradation activity. FIG. 1 depicts the fluorescent analysis of the autophagic flux in the presence of 6-bromoindirubin oxime (6-BIO), 6-MIO, and compounds of Formula I—compounds ‘a’ and ‘m’. FIG. 1 depicts that both autophagosomes and autolysosomes are increased with the compounds of Formula I when compared to the growth media control.
The assays were essentially performed as follows: RFP-EGFP-LC3 assay: sub-confluent HeLa and/or SH-SY5Y cells were seeded into 60 mm cell culture dishes, then transfected with ptf LC3 construct and/or siRNA and allowed to express for 48 h. Cells were trypsinized, seeded again on poly-D-lysine coated cover slips in a 12 or 24 well plates and allowed to attach. After appropriate treatments, the coverslips containing cells were processed for imaging. For immunofluorescent antibody staining, the cover slips were incubated in primary antibody at 4° C. for overnight followed by secondary antibody incubation at room temperature. For imaging the mammalian cells, after appropriate treatments, coverslips containing cells were fixed using 4% paraformaldehyde (PFA; Sigma) and then permeabilized using Triton X-100 (0.2%, HiMedia). Coverslips were mounted on slide using antifade, Vectashield mounting medium (Vector Laboratories). Images were acquired using DeltaVision Elite widefieldmicroscope (API, GE) with following filters: FITC (490/20 and 529/38), TRITC (542/27 and 594/45) and Cy5 (632/22 and 676/34). Acquired images were processed using DV softWoRX software. In this standard assay, the autophagosomes would appear as yellow whereas autolysosomes would be red as EGFP gets quenched at lysosomal acidic pH6.

As to `O=C1Nc2cc(Br)ccc2/C1=C1/Nc2ccccc2/C1=N\O.[Li]` [a, (2Z,3E)-6′-bromo-3-(hydroxyimino)-[2,3′-biindolinylidene]-2′-one lithium salt], the autolysosomes result was “increased” and the autophagosomes entry is recorded as “increased”.

As for `O=C1Nc2cc(Br)ccc2/C1=C1/Nc2ccccc2/C1=N\OCCO` [m, (2Z,3E)-6′-bromo 3-((2-hydroxyethoxy)imino)-[2,3′-biindolinylidene]-2′-one], the autolysosomes entry was “increased” and the autophagosomes result was “increased”.
